This passage reports TGI results from PubChem BioAssay (NCI).

Structures are written as SMILES.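 Grown in 96-well plates, cells were treated for 48 hours with each compound at five concentrations. Insufficient inhibition: endpoint recorded as highest concentration tested. TGI is the concentration that stops growth completely.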 Bounds are passed on as bounds.

Some test systems named below: SF-268 CNS; HS 578T breast; OVCAR-5 ovarian; ACHN renal; KM12 colon; HOP-62 NSCLC; EKVX NSCLC; SR leukemia; T-47D breast; OVCAR-4 ovarian; HL-60(TB) leukemia; NCI-H226 lung; PC-3 prostate; NCI-H460 lung; SK-MEL-28 melanoma; COLO 205 colon; NCI/ADR-RES ovarian; BT-549 breast; MDA-N.
Common to all, as to test: inhibition of tumour cell growth, NCI panel, 48 h

Turning to `N#CC(C#N)=C/C=C(\Sc1c(Cl)c(Cl)nc(Cl)c1Cl)c1ccc(Cl)cc1`, the TGI in the assay with SF-268 CNS stood at 54.1 µM; in the assay on HS 578T breast it was 63.7 µM; in the assay on OVCAR-5 ovarian, 44.6 µM; in the assay with ACHN renal, 37.8 µM; in the assay on KM12 colon, 51.5 µM; in the assay on HOP-62 NSCLC, 96.6 µM. For the same compound, the TGI with EKVX NSCLC is more than 100 µM; with SR leukemia it was 68.8 µM; in the assay on T-47D breast it was more than 100 µM; in the assay with OVCAR-4 ovarian, more than 100 µM; with HL-60(TB) leukemia it was more than 100 µM; in the assay on NCI-H226 lung, 67.9 µM. For the same compound, the TGI with PC-3 prostate was more than 100 µM; in the assay with NCI-H460 lung, more than 100 µM; in the assay on SK-MEL-28 melanoma, 49.7 µM; in the assay with COLO 205 colon it was 55.4 µM; in the assay with NCI/ADR-RES ovarian it was 36.1 µM.

As to `Oc1c(Cl)c(Cl)c(O)c(CCNc2ccc3ncccc3c2)c1Cl`, the TGI amounted to 18.8 µM in the assay on SF-268 CNS; 13.1 µM with HS 578T breast; 40.4 µM in the assay on OVCAR-5 ovarian; 28 µM in the assay with ACHN renal; 15.9 µM with KM12 colon; 27.7 µM in the assay with HOP-62 NSCLC. Besides, the TGI is 36 µM in the assay with EKVX NSCLC; 28 µM with SR leukemia; more than 100 µM in the assay on T-47D breast; more than 100 µM with OVCAR-4 ovarian; more than 100 µM in the assay on HL-60(TB) leukemia; more than 100 µM with PC-3 prostate. Moreover, the TGI with NCI-H460 lung turned out to be 41.8 µM; with SK-MEL-28 melanoma it was 54.6 µM; in the assay with COLO 205 colon, 89.2 µM; in the assay with NCI/ADR-RES ovarian it was 33.9 µM.

In the case of `Nc1nc(Cl)c(/C=N\O)c(NCC2(CO)CCC2)n1`, the TGI in the assay with SF-268 CNS is more than 100 µM; with HS 578T breast it was more than 100 µM; in the assay with OVCAR-5 ovarian, more than 100 µM; with ACHN renal, more than 100 µM; in the assay on KM12 colon, 18.3 µM; in the assay with HOP-62 NSCLC, more than 100 µM. The TGI with EKVX NSCLC, with SR leukemia, in the assay with OVCAR-4 ovarian, in the assay on NCI-H226 lung, with PC-3 prostate and with NCI-H460 lung was more than 100 µM throughout. The TGI in the assay on BT-549 breast, in the assay on MDA-N, in the assay with SK-MEL-28 melanoma, in the assay with COLO 205 colon and in the assay with NCI/ADR-RES ovarian was more than 100 µM in each case.

Turning to `Nc1c2ccccc2nc2ccc3c(=O)cc(-c4ccccc4)oc3c12`, the TGI came to 2.85 µM with OVCAR-5 ovarian; 2.39 µM in the assay with ACHN renal; 2.16 µM in the assay on KM12 colon; 2.8 µM in the assay with EKVX NSCLC; 2.23 µM with SR leukemia; 1.1 µM in the assay with OVCAR-4 ovarian. Also, the TGI with HL-60(TB) leukemia was 3.07 µM; in the assay with NCI-H226 lung, 2.56 µM; in the assay with PC-3 prostate, 2.7 µM; in the assay on NCI-H460 lung, 2.22 µM; in the assay with BT-549 breast, 59.7 µM; in the assay on MDA-N, 2.13 µM. In addition, the TGI in the assay on SK-MEL-28 melanoma was found to be 3.21 µM; with COLO 205 colon it was 1.35 µM.

For the compound `O=C(O)C1CCCCC1C(=O)Nn1cnnc1` (configuration not stated), the TGI in the assay on SF-268 CNS, with OVCAR-5 ovarian, in the assay with ACHN renal, in the assay on KM12 colon, in the assay with HOP-62 NSCLC and in the assay with EKVX NSCLC was more than 100 µM in each case. Besides, the TGI in the assay on SR leukemia, in the assay on OVCAR-4 ovarian, with PC-3 prostate, in the assay with BT-549 breast, in the assay with MDA-N and in the assay on SK-MEL-28 melanoma was more than 100 µM throughout. Further, the TGI with COLO 205 colon and with NCI/ADR-RES ovarian was more than 100 µM each time.

In the case of `Cn1c(=O)n2n(c1=O)C(S(=O)(=O)c1ccccc1)C2` (configuration not stated), the TGI with SF-268 CNS, in the assay on HS 578T breast, with OVCAR-5 ovarian, in the assay on ACHN renal, in the assay on KM12 colon and in the assay with HOP-62 NSCLC was more than 100 µM each time. For the same compound, the TGI in the assay on EKVX NSCLC, in the assay on OVCAR-4 ovarian, with PC-3 prostate, in the assay with NCI-H460 lung, in the assay with BT-549 breast and in the assay with MDA-N was more than 100 µM in each case. Further, the TGI in the assay on SK-MEL-28 melanoma, in the assay with COLO 205 colon and in the assay on NCI/ADR-RES ovarian was more than 100 µM in each case.

Consider `COc1ccc(P2(=S)Oc3ccccc3-c3ccccc3O2)cc1`, for which the TGI in the assay with SF-268 CNS, in the assay with HS 578T breast, in the assay on OVCAR-5 ovarian, with ACHN renal, with KM12 colon and in the assay on HOP-62 NSCLC was more than 100 µM throughout. The TGI with EKVX NSCLC, in the assay with T-47D breast, in the assay on OVCAR-4 ovarian, in the assay with NCI-H226 lung, in the assay on NCI-H460 lung and with BT-549 breast was more than 100 µM each time. For the same compound, the TGI with SK-MEL-28 melanoma is more than 100 µM; in the assay on COLO 205 colon it was 2.77 µM; with NCI/ADR-RES ovarian, more than 100 µM.

On to `COC(=O)C1=CSC2(S1)C(C(=O)OC)=CSc1c2ssc1=O` (configuration not stated), for which the TGI came to 8.89 µM with SF-268 CNS; 12.3 µM in the assay with HS 578T breast; 21.9 µM with OVCAR-5 ovarian; 3.61 µM in the assay with ACHN renal; 12.8 µM with KM12 colon; 17 µM in the assay with HOP-62 NSCLC. The TGI with EKVX NSCLC was 14.5 µM; in the assay with OVCAR-4 ovarian, 3.81 µM; in the assay with HL-60(TB) leukemia, 3.45 µM; in the assay on NCI-H226 lung, 44.9 µM; in the assay on PC-3 prostate, 6.03 µM; with NCI-H460 lung, 24.5 µM. The TGI stood at 12.9 µM in the assay with BT-549 breast; 4.92 µM in the assay on MDA-N; 5.23 µM with SK-MEL-28 melanoma; 4.03 µM in the assay with COLO 205 colon; 8.35 µM with NCI/ADR-RES ovarian.

`COc1cc2nc(-c3cccs3)nc(N3CCN(c4ccccc4C(F)(F)F)CC3)c2cc1OC`: the TGI in the assay on SF-268 CNS, in the assay on HS 578T breast, in the assay on OVCAR-5 ovarian, with ACHN renal, with KM12 colon and with HOP-62 NSCLC was more than 100 µM each time. In addition, the TGI in the assay with EKVX NSCLC, in the assay on T-47D breast, in the assay on OVCAR-4 ovarian, with HL-60(TB) leukemia, with NCI-H226 lung and in the assay with PC-3 prostate was more than 100 µM throughout. The TGI in the assay with NCI-H460 lung, in the assay with BT-549 breast, in the assay with SK-MEL-28 melanoma, in the assay with COLO 205 colon and in the assay on NCI/ADR-RES ovarian was more than 100 µM in each case.
